Results taken from PubChem BioAssay (NCI).
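Growth conditions: 96-well plates. Treatment: test compound, 48 hours, 5 concentrations. Analysis: linear interpolation between bracketing concentrations; unreached endpoints set to highest concentration. At the TGI there is no net growth.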 Where a SMILES comes first, the peptide text is derived from it. [ ]: non-standard residue; d: D form. The star is where a group is joined. Iva = CC[C](C)(N)C(=O)O; Boc = CC(C)(C)OC(=O)*; X52 = C1CCC(=NO*)C1

Columns and labels:
Assay in all cases: inhibition of tumour cell growth, NCI panel, 48 h
LOX IMVI melanoma = system: LOX IMVI melanoma
SK-MEL-28 melanoma = system: SK-MEL-28 melanoma
SK-MEL-5 melanoma = system: SK-MEL-5 melanoma
SK-MEL-2 melanoma = system: SK-MEL-2 melanoma
ACHN renal = system: ACHN renal
TK-10 renal = system: TK-10 renal
NCI-H226 lung = system: NCI-H226 lung
SNB-75 CNS = system: SNB-75 CNS
NCI-H23 lung = system: NCI-H23 lung
SW-620 colon = system: SW-620 colon
RXF 393 renal = system: RXF 393 renal
MALME-3M melanoma = system: MALME-3M melanoma
OVCAR-3 ovarian = system: OVCAR-3 ovarian
UACC-62 melanoma = system: UACC-62 melanoma
CCRF-CEM leukemia = system: CCRF-CEM leukemia
PC-3 prostate = system: PC-3 prostate
EKVX NSCLC = system: EKVX NSCLC
MOLT-4 leukemia = system: MOLT-4 leukemia
BT-549 breast = system: BT-549 breast
MCF7 breast = system: MCF7 breast

Row | SMILES | TGI (LOX IMVI melanoma) | TGI (SK-MEL-28 melanoma) | TGI (SK-MEL-5 melanoma) | TGI (SK-MEL-2 melanoma) | TGI (ACHN renal) | TGI (TK-10 renal) | TGI (NCI-H226 lung) | TGI (SNB-75 CNS) | TGI (NCI-H23 lung) | TGI (SW-620 colon) | TGI (RXF 393 renal) | TGI (MALME-3M melanoma) | TGI (OVCAR-3 ovarian) | TGI (UACC-62 melanoma) | TGI (CCRF-CEM leukemia) | TGI (PC-3 prostate) | TGI (EKVX NSCLC) | TGI (MOLT-4 leukemia) | TGI (BT-549 breast) | TGI (MCF7 breast)
1 | COc1ccc(C2SCC(=O)N2NC(=O)c2ccncc2)cc1F (stereo unspecified) | > 100 µM | > 100 µM | > 100 µM | > 100 µM | > 100 µM | > 100 µM | > 100 µM | > 100 µM | > 100 µM | > 100 µM | > 100 µM | > 100 µM | – | – | – | – | – | – | – | –
2 | O=C(Nc1ccccc1)c1cc2ccccc2c(N=Nc2ccc([N+](=O)[O-])cc2)c1O | > 100 µM | > 100 µM | > 100 µM | > 100 µM | > 100 µM | > 100 µM | > 100 µM | > 100 µM | > 100 µM | > 100 µM | > 100 µM | > 100 µM | > 100 µM | > 100 µM | 46.4 µM | > 100 µM | > 100 µM | > 100 µM | > 100 µM | –
3 | CCCCN1CN2C(=O)C(C(=O)OCC)C(=O)c3sc4nc(SC)nc1c4c32 (stereo unspecified) | 38.1 µM | 34 µM | 24.8 µM | 36.6 µM | 30.7 µM | 28.4 µM | 34 µM | 35.7 µM | 33.6 µM | 35.6 µM | 38.5 µM | 30.2 µM | 34.6 µM | 31.5 µM | 83.9 µM | 39.5 µM | 32.2 µM | 66.3 µM | 30.6 µM | 39.9 µM
4 | CCC(C)(NC(=O)C(C)NC(=O)OC(C)(C)C)C(=O)NC(C)C(=O)NC(C)(CC)C(=O)ON=C1CCCC1 (stereo unspecified) (Boc-A[Iva]A[Iva]-X52; configuration not given here) | – | > 100 µM | > 100 µM | > 100 µM | – | – | > 100 µM | > 100 µM | > 100 µM | – | > 100 µM | > 100 µM | > 100 µM | > 100 µM | > 100 µM | > 100 µM | – | > 100 µM | > 100 µM | > 100 µM
5 | C1CSCCSCCSCCSC1 | > 100 µM | > 100 µM | > 100 µM | > 100 µM | > 100 µM | > 100 µM | > 100 µM | > 100 µM | > 100 µM | > 100 µM | > 100 µM | – | > 100 µM | > 100 µM | – | > 100 µM | > 100 µM | > 100 µM | > 100 µM | > 100 µM
6 | CCCC[C@H]1[C@@H](OCOc2ccccc2)COC(=O)N1[C@H](C)c1ccccc1 | 70.7 µM | 71.1 µM | 16.9 µM | 33.3 µM | 47.8 µM | 39 µM | > 100 µM | 26.9 µM | > 58.2 µM | > 100 µM | 47.6 µM | 33.5 µM | 27.8 µM | 30.2 µM | 68.8 µM | 23.4 µM | 85.2 µM | > 60.4 µM | 44.4 µM | 26.7 µM
7 | O=[N+]([O-])c1ccc(N=Nc2c(O)ccc3ccccc23)c([N+](=O)[O-])c1 | > 100 µM | > 100 µM | > 100 µM | > 100 µM | > 100 µM | > 100 µM | > 100 µM | > 100 µM | > 100 µM | > 100 µM | > 100 µM | > 100 µM | > 100 µM | > 100 µM | > 64.6 µM | > 100 µM | > 100 µM | > 100 µM | > 100 µM | > 100 µM
8 | CC(C)OP(=O)(OC(C)C)c1nc(-c2ccccc2)n(-c2ccc([N+](=O)[O-])cc2)n1 | – | > 100 µM | > 100 µM | > 100 µM | > 100 µM | > 100 µM | > 100 µM | > 100 µM | > 100 µM | > 100 µM | – | > 100 µM | > 100 µM | > 100 µM | > 100 µM | – | > 100 µM | > 100 µM | – | –
9 | COc1cc2cc3c4cc(OC)c(OC)cc4cc[n+]3cc2cc1OC | > 100 µM | > 100 µM | > 100 µM | > 100 µM | – | – | > 100 µM | > 100 µM | > 100 µM | > 100 µM | > 100 µM | > 100 µM | > 73.3 µM | > 100 µM | > 100 µM | – | > 100 µM | > 96.8 µM | – | > 31.6 µM
10 | O=P1(Oc2ccc(Cl)cc2Cl)Oc2ccc3ccccc3c2-c2c(ccc3ccccc23)O1 | 53.9 µM | > 85.4 µM | > 100 µM | 36 µM | – | – | 59.8 µM | 85 µM | 75.8 µM | > 100 µM | 34.7 µM | 46.4 µM | 49.5 µM | 70.4 µM | > 89.6 µM | – | > 67.3 µM | 55.6 µM | – | > 100 µM
